This is an account of results in patent US20260335323A1, “CHIMERIC MOLECULE” (UCL Business Ltd, priority 2023, published 2026).

Type in all cases: cell-based, human
Assay [1] relates to c-MYC. Briefly: c-MYC immunofluorescence in hTERT-cMYC-ER expressing RPE1 cells. The following applies: 100 nM, 72 hours, with 4-OHT. How it is done: FIG. 9. (A) Schematic representation of hTERT-cMYC-ER expressing RPE1 cells. Treatment with 4-hydroxytamoxifen (4-OHT) translocates c-MYC-ER from the cytoplasm into the nucleus, simulating oncogenic c-MYC. (B) Immunofluorescence images of hTERT-cMYC-ER expressing RPE1 cells treated with DMSO, (+)-JQ1 or NZ-147 at 100 nM for 72 hours, each with or without 4-OHT.
RPE1-hTERT-c-MYC-ER cells were seeded in a 384 well PerkinElmer CellCarrier Ultra plate. In Example 8, cells were treated for 72 hours with DMSO, (+)-JQ1±4-OHT, or, NZ-147±4-OHT. In Example 9, cells were treated for 72 hours with 4-OHT, NZ-175, both, or neither. Thereafter, in both Examples 8 and 9, cells were fixed with 4% paraformaldehyde (PFA) in phosphate buffered saline (PBS) and blocked with 10% FBS and 0.1% Triton in PBS. Plates were incubated at 4° C. overnight, with 1:500 rabbit anti-c-MYC (D84C12) rabbit monoclonal antibody (#5605, Cell Signalling Technologies). The following day, plates were incubated with 1:1000 goat anti-rabbit Alexa 488 (ThermoFisher Scientific, #A-11008) and 1.62 μM Hoechst 33342 at room temperature for 1 hour before imaging. Excitation and emission spectra for each channel are as follows: Hoechst 33342=405/435-480 nm, Alexa 488=488/500-550 nm. Images were acquired at 40× and 63× magnification with water immersion lens.

Assay [2] has as its system A549 cells. The experiment in a line: Colony formation assay, A549. The following applies: A549, 100 nM, 72 hours. How it is done:
(§1) A549 and H1299 cells were seeded in 12 well plates at approximately 100 cells per well. In Example 8, wells were treated with DMSO, (+)-JQ1 or NZ-147. In Example 9, cells were treated with DMSO or NZ-175. Colonies were allowed to form over 120 h. Cells were fixed and stained with crystal violet staining solution, prepared in 70% ethanol.
(§2) A colony formation assay was performed in A549 and H1299 cells, which were treated with DMSO, (+)-JQ1 or NZ-147 at 100 nM for 72 hours and stained with crystal violet (FIG. 10A).
(§3) A colony formation assay was performed in A549 and H1299 cells, which were treated with DMSO or NZ-175 at 100 nM for 72 hours and stained with crystal violet (FIG. 16A).

For assay [3], the system named is MAX. The experiment in a line: Western blot, MAX levels in CAL51 cells. The following applies: 100 nM, 72 hours. How it is done: All treatments with (+)-JQ1, NZ-147 or NZ-175 were performed at 100 nM concentration over 72 hours.
Cells were homogenised in protein lysis buffer consisting of 0.1 M Tris pH 8.0, 0.1 M NaCl, 5% glycerol, IGEPAL® CA-630 (#18896. Sigma-Aldrich) and 5 mM EDTA, 0.1 M N-ethyl maleimide (ThermoFisher, #23030) and protease inhibitor (Cell Signalling Technologies, #5871). Protein concentrations were determined using the BCA assay to ensure equal loading. […] The membranes were immunoblotted with primary antibodies, overnight at 4° C. […]
Membranes were then incubated with horseradish peroxidase (HRP)-conjugated secondary antibodies (Rabbit #7074 and Mouse #7076) purchased from Cell Signalling Technologies for 1 hour and the HRP signal was detected using EZ-ECL Enhanced Chemiluminescence Detection Kit for HRP (#20-500-500, Sartorius), and imaged with an Alliance Q9 Advanced (UVITec). […]
We generated a BRD4-ULKTAC (NZ-147) by conjugating (+)-JQ1 (BRD4-targeting moiety) to NZ-60 via a PEG linker (FIG. 8A). CAL51 cells (a triple negative breast cancer cell line) were treated with DMSO, (+)-JQ1 or NZ-147 at 100 nM for 72 hours then lysed and analysed by Western blot (FIG. 8B). […]

In assay [4] the test system is H1299 cells. Briefly: Colony formation assay, H1299. How it is done:
as §1, §2, §3

On to `Cc1sc2c(c1C)C(c1ccc(Cl)cc1)=N[C@@H](CC(=O)NCCOCCOCCOCCn1cc(COc3ccc([C@@H](NC(=O)Nc4cc(C(F)(F)F)cc(C(F)(F)F)c4)C(=O)Nc4ccc(F)cc4F)cc3)nn1)c1nnc(C)n1-2` [NZ-147, (R)-2-(3-(3,5-bis(trifluoromethyl)phenyl)ureido)-2-(4-((1-(1-((S)-4-(4-chlorophenyl)-2,3,9-trimethyl-6H-thieno[3,2-f][1,2,4]triazolo[4,3-a][1,4]diazepin-6-yl)-2-oxo-6,9, 12-trioxa-3-azatetradecan-14-yl)-1H-1,2,3-triazol-4-yl)methoxy)phenyl)-N-(2,4-difluorophenyl) acetamide], for which the “nuclear c-MYC” value in assay [1] is “may show reduced nuclear c-MYC”. For the same molecule, the colony formation entry in assay [2] is “Fewest colonies formed”; in assay [4] (H1299, 100 nM, 72 hours) it was “Fewest colonies formed”. In addition, the “levels of MAX” value in assay [3] is listed as “reduced”. Moreover, the cell proliferation result in assay [4] (c-MYC-amplified cell line H1299) is on record as “reduced cell proliferation, exemplified further in the c-MYC-amplified cell line H1299”.
